# Source: paper PMC7549094 (Journal of Medicinal Chemistry, 2020)
# How the values were obtained:
# hr 5-HT3 = biological target: T1, hr 5-HT3 (Homo sapiens, UniProt P46098); assay: receptor profile (Table S4); format: binding
# T1 sequence (P46098 24-478): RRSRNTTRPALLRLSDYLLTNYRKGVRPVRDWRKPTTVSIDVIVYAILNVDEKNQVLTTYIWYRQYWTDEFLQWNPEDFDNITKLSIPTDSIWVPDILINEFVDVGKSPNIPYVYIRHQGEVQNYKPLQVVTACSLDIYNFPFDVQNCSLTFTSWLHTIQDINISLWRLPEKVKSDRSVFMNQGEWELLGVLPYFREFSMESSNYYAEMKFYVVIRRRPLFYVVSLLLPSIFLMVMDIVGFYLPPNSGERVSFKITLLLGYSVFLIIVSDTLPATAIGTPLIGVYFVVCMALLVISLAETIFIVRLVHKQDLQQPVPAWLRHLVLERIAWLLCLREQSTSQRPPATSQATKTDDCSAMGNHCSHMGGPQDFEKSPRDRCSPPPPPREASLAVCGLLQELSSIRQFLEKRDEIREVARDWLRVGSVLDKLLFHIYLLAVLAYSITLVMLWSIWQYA
# hr M2 antag = biological target: T2, hr M2 antag (Homo sapiens, UniProt P08172); assay: receptor profile (Table S4); format: biochemical
# T2 sequence (P08172 1-466): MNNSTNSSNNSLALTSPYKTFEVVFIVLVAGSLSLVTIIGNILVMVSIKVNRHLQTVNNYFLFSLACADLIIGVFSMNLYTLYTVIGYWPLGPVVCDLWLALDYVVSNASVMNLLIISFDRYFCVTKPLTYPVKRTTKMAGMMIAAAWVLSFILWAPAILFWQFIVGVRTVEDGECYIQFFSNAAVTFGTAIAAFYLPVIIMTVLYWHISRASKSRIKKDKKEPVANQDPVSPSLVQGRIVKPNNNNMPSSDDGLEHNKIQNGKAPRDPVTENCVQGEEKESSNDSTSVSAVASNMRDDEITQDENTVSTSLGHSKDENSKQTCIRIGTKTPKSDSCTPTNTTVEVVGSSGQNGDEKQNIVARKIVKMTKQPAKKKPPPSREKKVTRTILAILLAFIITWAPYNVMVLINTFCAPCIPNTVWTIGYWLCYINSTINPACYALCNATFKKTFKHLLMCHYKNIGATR
# hr 5-HT1A antag = biological target: T3, hr 5-HT1A antag (Homo sapiens, UniProt P08908); assay: receptor profile (Table S4); format: biochemical
# T3 sequence (P08908 1-422): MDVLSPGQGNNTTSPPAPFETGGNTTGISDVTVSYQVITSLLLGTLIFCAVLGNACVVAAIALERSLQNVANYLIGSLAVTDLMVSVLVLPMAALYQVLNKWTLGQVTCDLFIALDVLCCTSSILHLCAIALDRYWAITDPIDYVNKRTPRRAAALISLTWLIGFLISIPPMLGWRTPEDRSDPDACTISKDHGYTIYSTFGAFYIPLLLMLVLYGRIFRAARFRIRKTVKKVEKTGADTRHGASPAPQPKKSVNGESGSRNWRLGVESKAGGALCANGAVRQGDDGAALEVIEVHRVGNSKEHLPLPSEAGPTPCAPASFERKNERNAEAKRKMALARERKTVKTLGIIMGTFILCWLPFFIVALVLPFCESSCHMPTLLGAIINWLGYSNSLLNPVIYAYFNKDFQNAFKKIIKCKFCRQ
# hr ACES = hr ACES (Homo sapiens, UniProt P22303); assay: receptor profile (Table S4); format: biochemical
# Sequence of hr ACES (P22303 32-614): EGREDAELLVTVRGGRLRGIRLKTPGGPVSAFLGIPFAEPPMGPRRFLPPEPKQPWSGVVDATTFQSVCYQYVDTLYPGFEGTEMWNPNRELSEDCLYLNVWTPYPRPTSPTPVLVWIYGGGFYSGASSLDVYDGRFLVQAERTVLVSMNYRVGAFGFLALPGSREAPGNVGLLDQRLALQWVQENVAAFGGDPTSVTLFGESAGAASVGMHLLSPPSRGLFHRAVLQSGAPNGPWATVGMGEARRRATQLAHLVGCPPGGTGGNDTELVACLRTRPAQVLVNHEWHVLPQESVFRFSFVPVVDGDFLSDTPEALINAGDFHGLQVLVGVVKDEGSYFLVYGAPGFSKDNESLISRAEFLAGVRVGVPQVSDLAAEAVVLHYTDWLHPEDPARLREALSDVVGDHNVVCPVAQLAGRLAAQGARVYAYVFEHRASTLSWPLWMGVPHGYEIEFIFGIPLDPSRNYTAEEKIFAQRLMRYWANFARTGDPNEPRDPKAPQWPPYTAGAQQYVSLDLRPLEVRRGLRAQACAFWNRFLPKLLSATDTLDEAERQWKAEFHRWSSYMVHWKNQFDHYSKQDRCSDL
# hr 5-HT2A ag = hr 5-HT2A ag (Homo sapiens, UniProt P28223); assay: receptor profile (Table S4); format: biochemical
# Sequence of hr 5-HT2A ag (P28223 whole entry): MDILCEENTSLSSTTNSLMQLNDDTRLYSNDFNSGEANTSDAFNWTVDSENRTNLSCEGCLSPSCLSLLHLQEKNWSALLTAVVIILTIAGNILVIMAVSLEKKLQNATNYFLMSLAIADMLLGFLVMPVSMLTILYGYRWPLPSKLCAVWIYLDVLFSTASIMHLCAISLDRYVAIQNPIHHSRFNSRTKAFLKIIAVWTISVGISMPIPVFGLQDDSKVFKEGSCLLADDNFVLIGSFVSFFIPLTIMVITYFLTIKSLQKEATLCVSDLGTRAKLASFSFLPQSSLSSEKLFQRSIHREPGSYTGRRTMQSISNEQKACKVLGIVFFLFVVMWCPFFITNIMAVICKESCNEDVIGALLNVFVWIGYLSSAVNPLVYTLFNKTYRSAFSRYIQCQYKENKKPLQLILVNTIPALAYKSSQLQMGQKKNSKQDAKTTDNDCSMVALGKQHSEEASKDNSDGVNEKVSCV
# hr Ad3 = biological target: T4, hr Ad3 (Homo sapiens, UniProt P0DMS8); assay: receptor profile (Table S4); format: binding
# T4 sequence (P0DMS8 1-318): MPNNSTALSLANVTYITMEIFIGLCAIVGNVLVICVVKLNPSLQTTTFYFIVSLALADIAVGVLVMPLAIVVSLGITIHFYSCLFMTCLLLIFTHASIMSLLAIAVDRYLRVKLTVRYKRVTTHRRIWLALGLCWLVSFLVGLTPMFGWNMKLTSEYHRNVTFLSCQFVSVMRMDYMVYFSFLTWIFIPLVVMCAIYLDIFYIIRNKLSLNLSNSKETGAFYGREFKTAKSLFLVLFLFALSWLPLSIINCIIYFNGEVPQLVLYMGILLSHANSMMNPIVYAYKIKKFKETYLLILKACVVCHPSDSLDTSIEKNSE
# [1] = metabolite profile in dog hepatocytes; format: in vitro ADME; settings: 10 μM of 1 for 4 h, UV 250 nm, normalized to largest peak
# hr MAOA = biological target: T5, hr MAOA (Homo sapiens, UniProt P21397); assay: receptor profile (Table S4); format: biochemical
# T5 sequence (P21397 1-527): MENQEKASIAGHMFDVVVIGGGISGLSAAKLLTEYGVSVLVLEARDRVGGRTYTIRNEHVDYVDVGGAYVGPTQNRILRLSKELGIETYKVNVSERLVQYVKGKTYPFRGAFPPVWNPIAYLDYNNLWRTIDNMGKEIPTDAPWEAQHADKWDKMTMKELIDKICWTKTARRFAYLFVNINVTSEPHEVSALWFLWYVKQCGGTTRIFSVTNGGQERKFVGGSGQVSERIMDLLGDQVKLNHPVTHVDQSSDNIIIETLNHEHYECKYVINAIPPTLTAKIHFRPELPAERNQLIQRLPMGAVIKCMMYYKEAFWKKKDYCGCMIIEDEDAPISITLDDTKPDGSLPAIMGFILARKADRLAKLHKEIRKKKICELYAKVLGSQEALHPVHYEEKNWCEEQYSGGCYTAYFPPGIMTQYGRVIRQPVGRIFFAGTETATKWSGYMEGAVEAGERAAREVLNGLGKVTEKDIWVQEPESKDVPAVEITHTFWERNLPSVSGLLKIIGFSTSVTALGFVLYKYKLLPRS
# hr V1a = hr V1a (Homo sapiens, UniProt P37288); assay: receptor profile (Table S4); format: binding
# Sequence of hr V1a (P37288 whole entry): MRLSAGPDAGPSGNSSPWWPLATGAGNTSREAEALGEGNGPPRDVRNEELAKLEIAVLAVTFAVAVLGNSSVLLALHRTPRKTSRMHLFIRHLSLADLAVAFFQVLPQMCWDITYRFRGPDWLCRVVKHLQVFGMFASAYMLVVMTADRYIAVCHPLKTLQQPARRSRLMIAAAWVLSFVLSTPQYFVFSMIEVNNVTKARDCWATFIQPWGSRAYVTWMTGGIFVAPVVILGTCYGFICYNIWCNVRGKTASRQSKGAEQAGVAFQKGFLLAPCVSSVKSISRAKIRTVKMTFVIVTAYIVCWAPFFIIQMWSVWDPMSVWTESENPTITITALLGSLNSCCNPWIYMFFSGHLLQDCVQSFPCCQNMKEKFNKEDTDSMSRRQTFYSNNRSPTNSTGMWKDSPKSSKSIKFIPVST
structure (smiles),measurement,setting,value
"Cc1nc(C)c(C(=O)Nc2ccc(F)c(-c3nc4ncc(-c5ncccc5C)cn4n3)c2)o1 [compound 1, N-(4-Fluoro-3-(6-(3-methylpyridin-2-yl)-[1,2,4]triazolo[1,5-a]pyrimidin-2-yl)phenyl)-2,4-dimethyloxazole-5-carboxamide]",EC50/IC50,hr 5-HT3; hr 5-HT3,> 30 µM
same,inhibition at 10 µM,hr 5-HT3; read-out: % inh/act @ 10 µM,22%
same,inhibition at 30 µM,hr 5-HT3; read-out: % inh/act @ 30 µM,19%
same,EC50/IC50,hr M2 antag; hr M2 antag,> 30 µM
same,inhibition at 10 µM,hr M2 antag; read-out: % inh/act @ 10 µM,16%
same,inhibition at 30 µM,hr M2 antag; read-out: % inh/act @ 30 µM,31%
same,EC50/IC50,hr 5-HT1A antag; hr 5-HT1A antag,> 30 µM
same,inhibition at 10 µM,hr 5-HT1A antag; read-out: % inh/act @ 10 µM,19%
same,inhibition at 30 µM,hr 5-HT1A antag; read-out: % inh/act @ 30 µM,42%
same,EC50/IC50,hr ACES; hr ACES,> 30 µM
same,inhibition at 10 µM,hr ACES; read-out: % inh/act @ 10 µM,16%
same,EC50/IC50,hr 5-HT2A ag; hr 5-HT2A ag,> 30 µM
same,inhibition at 10 µM,hr 5-HT2A ag; read-out: % inh/act @ 10 µM,-7%
same,inhibition at 30 µM,hr 5-HT2A ag; read-out: % inh/act @ 30 µM,-10%
same,EC50/IC50,hr Ad3; hr Ad3,> 30 µM
same,inhibition at 10 µM,hr Ad3; read-out: % inh/act @ 10 µM,8%
same,inhibition at 30 µM,hr Ad3; read-out: % inh/act @ 30 µM,37%
same,abundance dog,[1],+++ (+++ > 75%)
same,EC50/IC50,hr MAOA; hr MAOA,> 30 µM
same,inhibition at 10 µM,hr MAOA; read-out: % inh/act @ 10 µM,4%
same,inhibition at 30 µM,hr MAOA; read-out: % inh/act @ 30 µM,12%
same,% inh/act @ 10 µM,h Nic(cns),20%
same,% inh/act @ 30 µM,h Nic(cns),24%
same,EC50/IC50,hr V1a; hr V1a,> 30 µM
same,inhibition at 10 µM,hr V1a; read-out: % inh/act @ 10 µM,11%
same,inhibition at 30 µM,hr V1a; read-out: % inh/act @ 30 µM,19%
